{"source": "PubChem BioAssay AID179", "about": "(DTP/NCI, 2004)", "test_system": "CEM cells HIV-1 protection, formazan growth assay", "assay": "NCI AIDS Antiviral Assay", "details": "for pIC50: measured here: growth of uninfected CEM cells", "summary_of_the_method": "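Steps: treat uninfected and HIV-1-infected human CEM cells at five drug levels; quantify growth by soluble formazan; retest any compound reaching 50% protection; classify actives from the retest.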", "note": "pEC50, pIC50: −log10 of the molar value. Where “and” joins values, the source holds several entries; their conditions need not be identical. Equal entries are not always repeated. Calls of active or inactive are those of the source.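 Rule for the calls: active = compounds giving half or more protection of infected cells from virus-caused growth loss, again on retest; inactive = the rest.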", "data": [{"smiles": "CC1Cc2c(N)nc(N3CCOCC3)nc2NC1=O", "note": "(configuration not stated)", "values": [{"measurement": "outcome", "value": "inactive"}]}, {"smiles": "CCN(CC)CCOc1ccc(/C(C#N)=C/c2ccc(OCCO)cc2)cc1", "values": [{"measurement": "pEC50", "value": "< 3.70"}, {"measurement": "pIC50", "value": 4.68}]}, {"smiles": "CCCCCOC(=S)S", "values": [{"measurement": "pEC50", "value": "< 3.70"}, {"measurement": "pIC50", "value": "< 3.70"}]}, {"smiles": "COC(=O)C(CSSCC(C(=O)NC(Cc1ccccc1)C(=O)NCC(=O)OC(C)(C)C)N1C(=O)CCC1=O)NC(=O)OCc1ccccc1", "note": "(configuration not stated)", "values": [{"measurement": "pEC50", "value": "< 3.70"}, {"measurement": "pIC50", "value": 4.69}]}, {"smiles": "CC1=C(C)C(=O)c2c(cc3c4ccccc4ccn23)C1=O", "values": [{"measurement": "outcome", "value": "inactive"}]}, {"smiles": "O=C1CSC(c2ccc(Cl)cc2)N1c1ccc(-n2c(-c3ccccc3)nc3ccccc3c2=O)cc1", "note": "(configuration not stated)", "values": [{"measurement": "pEC50", "value": "< 3.70"}, {"measurement": "pIC50", "value": 4.17}]}, {"smiles": "COC1(C)C[C@@]23CC[C@@H]4C(C)(C(=O)O)CCCC4(C)[C@@H]2CC[C@@H]1C3", "note": "(some centres not stated)", "values": [{"measurement": "pEC50", "value": "< 3.70"}, {"measurement": "pIC50", "value": 3.92}]}, {"smiles": "O=C1CCC2(c3ccccc3)Nc3ccncc3N12", "note": "(configuration not stated)", "values": [{"measurement": "pEC50", "value": "< 3.00"}, {"measurement": "pIC50", "value": 3.31}]}, {"smiles": "Cc1nn(C(=O)Cc2ccccc2)c2c1C(c1ccccc1[N+](=O)[O-])SC(N)=N2", "note": "(configuration not stated)", "values": [{"measurement": "pEC50", "value": "< 3.30"}, {"measurement": "pIC50", "value": 4.06}]}, {"smiles": "CCCCCCCCCC=C(c1cc(Br)cc(C(=O)O)c1OC)c1cc(Br)cc(C(=O)O)c1OC", "values": [{"measurement": "pEC50", "value": "< 2.92"}, {"measurement": "pIC50", "value": 4.12}]}, {"smiles": "N#CC1=C(c2ccccc2)OC2(N)OC(c3ccccc3)=C(C#N)C12C#N", "note": "(configuration not stated)", "values": [{"measurement": "outcome", "value": "inactive"}]}, {"smiles": "CC1(C)CN=C(Nc2ccc(F)c(F)c2)S1", "values": [{"measurement": "pEC50", "value": "< 3.70"}, {"measurement": "pIC50", "value": "< 3.70"}]}, {"smiles": "Cc1cc2[n-]c1/C=c1\\[n-]/c(c(CCC(=O)O)c1C)=C\\c1[n-]c(c(C)c1CCC(=O)O)/C=c1/cc(C)/c([n-]1)=C/2.[Ni]", "values": [{"measurement": "pEC50", "value": "< 5.04"}]}, {"smiles": "Cc1cccc(-c2nc3ccc([N+](=O)[O-])cc3c(=O)o2)c1", "values": [{"measurement": "pEC50", "value": "< 3.70"}, {"measurement": "pIC50", "value": 4.51}]}, {"smiles": "O=C(O)/C=C/c1ccc([N+](=O)[O-])cc1", "values": [{"measurement": "pEC50", "value": "< 4.01"}, {"measurement": "pIC50", "value": "< 4.01"}]}, {"smiles": "CNCC(=O)NC(CO)C(=O)NC1C(C(N)=O)OC(n2ccc(N)nc2=O)C(O)C1O", "note": "(configuration not stated)", "values": [{"measurement": "outcome", "value": "inactive"}]}, {"smiles": "COc1c2c3c4c(c(OC)c(=O)c5c(O)c(Br)c(OC)c(c6c(OC)c(Br)c(O)c(c1=O)c36)c54)C(C(C)=O)=C(C)C2", "values": [{"measurement": "pEC50", "value": "< 4.86"}, {"measurement": "pIC50", "value": 5.84}]}, {"smiles": "CN(C)CC(NC(NCS)C(=O)NCCNc1ccc(NCCNC(=O)C(NCS)NC(CN(C)C)OCCl)c2c1C(=O)c1c(O)ccc(O)c1C2=O)OCCl", "note": "(configuration not stated)", "values": [{"measurement": "pEC50", "value": "< 7.30"}, {"measurement": "pIC50", "value": 7.74}]}, {"smiles": "C=CCNC(=O)NC1=CSC2=NC(=O)C3(NN12)c1ccccc1-c1ccccc13", "values": [{"measurement": "pEC50", "value": "< 3.70"}, {"measurement": "pIC50", "value": 4.23}]}, {"smiles": "Cc1c2c(cc3c(=O)ccn(CCN(C)C)c13)c(=O)ccn2CCN(C)C", "values": [{"measurement": "pEC50", "value": "< 3.87"}, {"measurement": "pIC50", "value": 6.00}]}, {"smiles": "CNc1nc2n(CCO)c(-c3ccccc3)c(-c3ccccc3)nc-2c(=O)n1", "values": [{"measurement": "pEC50", "value": "< 4.30"}, {"measurement": "pIC50", "value": 4.58}]}, {"smiles": "Clc1ccc2c(c1)nnn1nccc21", "values": [{"measurement": "pEC50", "value": "< 4.45"}, {"measurement": "pIC50", "value": "< 4.45"}]}, {"smiles": "O=S1c2ccccc2NC(c2ccc3ccccc3c2)CC1c1ccccc1", "note": "(configuration not stated)", "values": [{"measurement": "pEC50", "value": "< 5.15"}, {"measurement": "pIC50", "value": "< 5.15"}]}, {"smiles": "CC(C)(C=O)CC(C#N)/C(=N\\NC(N)=O)C(=O)Nc1ccccc1C(N)=O", "note": "(configuration not stated)", "values": [{"measurement": "pEC50", "value": "< 3.17"}, {"measurement": "pIC50", "value": "< 3.17"}]}, {"smiles": "Cn1cnc([N+](=O)[O-])c1Sc1nnnn1C", "values": [{"measurement": "pEC50", "value": "< 2.99"}, {"measurement": "pIC50", "value": 5.26}]}, {"smiles": "COc1ccc2c3c(cnc2c1)P(C)(=O)CC3", "note": "(configuration not stated)", "values": [{"measurement": "outcome", "value": "inactive"}]}, {"smiles": "COc1cc(C(C#N)NNC(=O)c2ccccc2O)ccc1O", "note": "(configuration not stated)", "values": [{"measurement": "pEC50", "value": "< 5.24"}, {"measurement": "pIC50", "value": 6.37}]}, {"smiles": "CN1CCc2ccccc2/C(=C(/O)c2ccccc2)C1=O", "values": [{"measurement": "outcome", "value": "inactive"}]}, {"smiles": "Cn1c(=O)c(NC(=O)C(Cl)(Cl)Cl)nc2ccccc21", "values": [{"measurement": "pEC50", "value": "< 4.03"}, {"measurement": "pIC50", "value": "< 4.03"}]}, {"smiles": "COC(=O)[C@@H]1OC(C)(c2ccccc2)O[C@H]1C(=O)OC", "values": [{"measurement": "pEC50", "value": "< 3.70"}, {"measurement": "pIC50", "value": "< 3.70"}]}, {"smiles": "CCOC(=O)C1(c2ccccc2)CCC(=O)CC1", "values": [{"measurement": "pEC50", "value": "< 3.42"}, {"measurement": "pIC50", "value": "< 3.42"}]}, {"smiles": "CC1(C)C=C(N2CCN(C3=CC(C)(C)NC(C)(C)C3)CC2)CC(C)(C)N1", "values": [{"measurement": "pEC50", "value": "< 3.74"}, {"measurement": "pIC50", "value": "< 3.74"}]}, {"smiles": "COC(=O)[C@@H]1c2cc3c(c(O)c2[C@@H](OC2OC(C)C(OC)C(C)(OC)C2OC)C[C@]1(C)O)C(=O)c1c(O)cc2c(c1C3=O)O[C@H]1O[C@]2(C)[C@H](O)[C@@H](N(C)C)[C@@H]1O", "note": "(some centres not stated)", "values": [{"measurement": "outcome", "value": "inactive"}]}, {"smiles": "Nc1nc(=S)c2ncn(C3CC(O)C(CO)O3)c2[nH]1", "note": "(configuration not stated)", "values": [{"measurement": "pEC50", "value": "< 3.05"}, {"measurement": "pIC50", "value": "6.34 and 5.68"}]}, {"smiles": "O=S(O)CCCCSSCCCCSSCCCCS(=O)O", "values": [{"measurement": "outcome", "value": "inactive"}]}, {"smiles": "CCCc1cc(=O)oc2c3c(cc(OC(C)CI)c12)O[C@H](C)[C@@H](C)C3=O", "note": "(some centres not stated)", "values": [{"measurement": "pEC50", "value": "< 4.06"}, {"measurement": "pIC50", "value": 4.67}]}, {"smiles": "O=C1CCCCCCCCCC(=O)Nc2ccccc2-c2ccccc2N1", "values": [{"measurement": "outcome", "value": "inactive"}]}, {"smiles": "COc1ccc(-c2sc(N)c(C#N)c2C)cc1OC", "values": [{"measurement": "outcome", "value": "inactive"}]}, {"smiles": "Cc1cc(C)nc(NS(=O)(=O)c2ccc(NC(=O)NC(F)(F)F)cc2)n1", "values": [{"measurement": "pEC50", "value": "< 3.70"}, {"measurement": "pIC50", "value": "< 3.70"}]}, {"smiles": "COc1ccc2nc3ccc(OC)cc3c(SCc3ccccc3)c2c1", "values": [{"measurement": "pEC50", "value": "< 3.70"}, {"measurement": "pIC50", "value": "< 4.00"}]}, {"smiles": "NC(=O)C(=O)C1C(=O)N(c2ccccc2)N=C1N", "note": "(configuration not stated)", "values": [{"measurement": "outcome", "value": "inactive"}]}, {"smiles": "O=C(N/C(=C\\c1ccc(/C=C(\\NC(=O)c2ccccc2)c2nc3ccccc3[nH]2)cc1)c1nc2ccccc2[nH]1)c1ccccc1", "values": [{"measurement": "outcome", "value": "inactive"}]}, {"smiles": "NNc1cn[nH]c(=O)c1Cl", "values": [{"measurement": "pEC50", "value": "< 3.70"}, {"measurement": "pIC50", "value": "< 3.70"}]}, {"smiles": "CCn1nc(C(=O)O)c(=O)c2cc3c(cc21)OCO3", "values": [{"measurement": "pEC50", "value": "< 3.70"}, {"measurement": "pIC50", "value": "< 3.70"}]}, {"smiles": "CC(C(=O)O)c1ccc2c(c1)Cc1ccccc1-2", "note": "(configuration not stated)", "values": [{"measurement": "pEC50", "value": "< 3.70"}, {"measurement": "pIC50", "value": "< 3.70"}]}]}
